Reference: patent publication US20250263437A1, “POLYPEPTIDE FOR REPAIRING SKIN WOUND OR MUCOSAL INJURY, AND APPLICATION THEREOF” (Sichuan Gooddoctor Panxi Pharmaceutical Co., Ltd., priority 2021, published 2025)
Where no end group is shown, it is not given here.

These substances were tested on ethanol-induced gastric ulcer model in mice (assay: Anti-ulcer effect on ethanol-induced gastric ulcer model in mice). Details: single administration; ulcer inhibition rate of test compound / ulcer inhibition rate of Compound 1.
Type: in vivo
Description: Experimental animals: Six-week old C57BL/6JGPt male mice, weighing about 20 g/mouse, were selected, with 10 mice in each group, from GemPharmatech (Chengdu) Co., Ltd., animal license number: SCXK (Chuan) 2020-034. After the experimental animals were divided into groups, they were dosed according to Table 5 one day before the experiment. Among the groups, the model group was given 200 μl of pure water, and the other dose groups were given 200 μl of drug solution. After that, all the animals were fasted for 24 h with free access to water. The next day, 1 h after administration, the mice in each group were given 9 μl/g of absolute ethanol by oral gavage for modeling. After 1 h, the animals were sacrificed by cervical dislocation, the gastric cardia was ligated, the pylorus was occluded, and the whole stomach was removed. 1 mL of 1% formaldehyde solution was injected into the gastric lumen via the glandular stomach, the cardia was ligated, and the stomach was taken out and immediately immersed in 1% formaldehyde solution. After soaking for 30 min, the stomach tissue was taken out and cut open along the greater curvature. The content of the stomach was rinsed off with normal saline, the injury of the gastric mucosa in the mice were observed and measured after being laid flat, and the ulcer index and ulcer inhibition rate were calculated; panoramic photos of the stomach were taken; and finally, the gastric tissue sample was immersed in formalin and fixed. Calculation method for ulcer index: If the length of cord-like injury was greater than 1 mm, the length thereof was measured, with 1 point per millimeter; if the width thereof was greater than 1 mm, the score thereof was doubled according to the number of millimeters of the width; and if the length was less than 1 mm, a score of 0.5 was given, and the scores were added up to obtain the ulcer index of the animal. Method of data statistics: the ulcer index was expressed as mean±standard deviation; the ulcer inhibition rate was calculated by using the median value and mean value of the ulcer index in each dosage group and simulation group; and the data were statistically analyzed by means of Excel, and the difference data of the gastric ulcer index were statistically analyzed by means of independent sample T test.
For AAVLEKLE [Compound 69], the “Anti-ulcer activity (mean relative ulcer inhibition rate)” value was 1.25. For AEPVPLEAEAKGKAE [Compound 54], the “Anti-ulcer activity (mean relative ulcer inhibition rate)” value was 0.59. AMQASLEAEAKGKAE [Compound 29] was tested, and the “Anti-ulcer activity (mean relative ulcer inhibition rate)” value was 1.00. For EAEAAGKAE [Compound 61], the “Anti-ulcer activity (mean relative ulcer inhibition rate)” value was 0.52. EAEAKGK [Compound 46] was tested, and the “Anti-ulcer activity (mean relative ulcer inhibition rate)” value was 0.47. For EAEAKGKAE [Compound 7], the “Anti-ulcer activity (mean relative ulcer inhibition rate)” value was 1.69. In the case of FDALKQQFQAFQLE [Compound 62], the “Anti-ulcer activity (mean relative ulcer inhibition rate)” value is reported as 0.89. With “Gln-Ala-Ser-Leu (QASL; printed: Gln-Ala-Ser-Leu) [Compound 9]” the “Anti-ulcer activity (mean relative ulcer inhibition rate)” value was 0.59. With “Glu-Ala-Glu-Ala (EAEA; printed: Glu-Ala-Glu-Ala) [Compound 45]” the “Anti-ulcer activity (mean relative ulcer inhibition rate)” value was 0.50. For “Gly-Lys-Ala-Glu (GKAE; printed: Gly-Lys-Ala-Glu) [Compound 10]”, the “Anti-ulcer activity (mean relative ulcer inhibition rate)” value was 0.56. For PAAEPVPLEAEAKGKAE [Compound 55], the “Anti-ulcer activity (mean relative ulcer inhibition rate)” value was 0.20. For QASLEAEAKGK [Compound 4], the “Anti-ulcer activity (mean relative ulcer inhibition rate)” value was 0.82. For QASLEAEAKGKAE [Compound 2], the “Anti-ulcer activity (mean relative ulcer inhibition rate)” value was 0.45. In the case of RKDVYEAEAKGKAE [Compound 59], the “Anti-ulcer activity (mean relative ulcer inhibition rate)” value is reported as 0.48. In the case of SAQASLEAEAKGKAE [Compound 16], the “Anti-ulcer activity (mean relative ulcer inhibition rate)” value is reported as 0.98. In the case of SIQASLEAEAKGKAE [Compound 22], the “Anti-ulcer activity (mean relative ulcer inhibition rate)” value is reported as 0.81. In the case of SLQASLEAEAKGKAE [Compound 17], the “Anti-ulcer activity (mean relative ulcer inhibition rate)” value is reported as 0.74. With SMAASLEAEAKGKAE [Compound 21] the “Anti-ulcer activity (mean relative ulcer inhibition rate)” value was 0.87. SMEASLEAEAKGKAE [Compound 37] was tested, and the “Anti-ulcer activity (mean relative ulcer inhibition rate)” value was 0.22. For SMQAALEAEAKGKAE [Compound 28], the “Anti-ulcer activity (mean relative ulcer inhibition rate)” value was 0.67. In the case of SMQASAEAEAKGKAE [Compound 15], the “Anti-ulcer activity (mean relative ulcer inhibition rate)” value is reported as 0.72. SMQASL [Compound 8] was tested, and the “Anti-ulcer activity (mean relative ulcer inhibition rate)” value was 0.89. For SMQASLAAEAKGKAE [Compound 19], the “Anti-ulcer activity (mean relative ulcer inhibition rate)” value was 0.64. SMQASLDAEAKGKAE [Compound 38] was tested, and the “Anti-ulcer activity (mean relative ulcer inhibition rate)” value was 1.38. SMQASLEAAAKGKAE [Compound 20] was tested, and the “Anti-ulcer activity (mean relative ulcer inhibition rate)” value was 0.56. With SMQASLEADAKGKAE [Compound 39] the “Anti-ulcer activity (mean relative ulcer inhibition rate)” value was 0.83. In the case of SMQASLEAEAAGKAE [Compound 18], the “Anti-ulcer activity (mean relative ulcer inhibition rate)” value is reported as 0.91. With SMQASLEAEAHGKAE [Compound 32] the “Anti-ulcer activity (mean relative ulcer inhibition rate)” value was 0.52. For SMQASLEAEAK [Compound 5], the “Anti-ulcer activity (mean relative ulcer inhibition rate)” value was 0.84. With SMQASLEAEAKAKAE [Compound 56] the “Anti-ulcer activity (mean relative ulcer inhibition rate)” value was 0.91. In the case of SMQASLEAEAKGAAE [Compound 26], the “Anti-ulcer activity (mean relative ulcer inhibition rate)” value is reported as 0.56. SMQASLEAEAKGHAE [Compound 31] was tested, and the “Anti-ulcer activity (mean relative ulcer inhibition rate)” value was 0.50. SMQASLEAEAKGK [Compound 3] was tested, and the “Anti-ulcer activity (mean relative ulcer inhibition rate)” value was 0.33. With SMQASLEAEAKGKAA [Compound 27] the “Anti-ulcer activity (mean relative ulcer inhibition rate)” value was 0.51. For SMQASLEAEAKGKAD [Compound 23], the “Anti-ulcer activity (mean relative ulcer inhibition rate)” value was 0.70. With SMQASLEAEAKGKAEA [Compound 52] the “Anti-ulcer activity (mean relative ulcer inhibition rate)” value was 0.67. SMQASLEAEAKGKAEL [Compound 51] was tested, and the “Anti-ulcer activity (mean relative ulcer inhibition rate)” value was 0.62. In the case of SMQASLEAEAKGKAKQD [Compound 53], the “Anti-ulcer activity (mean relative ulcer inhibition rate)” value is reported as 0.44. SMQASLEAEAKGKAKQE [Compound 58] was tested, and the “Anti-ulcer activity (mean relative ulcer inhibition rate)” value was 0.52. With SMQASLEAEAKGKAN [Compound 24] the “Anti-ulcer activity (mean relative ulcer inhibition rate)” value was 0.62. In the case of SMQASLEAEAKGKAQ [Compound 13], the “Anti-ulcer activity (mean relative ulcer inhibition rate)” value is reported as 1.02. For SMQASLEAEAKGKAQD [Compound 49], the “Anti-ulcer activity (mean relative ulcer inhibition rate)” value was 0.48. In the case of SMQASLEAEAKGKAQE [Compound 50], the “Anti-ulcer activity (mean relative ulcer inhibition rate)” value is reported as 0.09. With SMQASLEAEAKGKSE [Compound 60] the “Anti-ulcer activity (mean relative ulcer inhibition rate)” value was 1.03. For SMQASLEAEAKGRAE [Compound 25], the “Anti-ulcer activity (mean relative ulcer inhibition rate)” value was 0.36. In the case of SMQASLEAEAKPKAE [Compound 57], the “Anti-ulcer activity (mean relative ulcer inhibition rate)” value is reported as 1.12. For SMQASLEAEARGKAE [Compound 30], the “Anti-ulcer activity (mean relative ulcer inhibition rate)” value was 0.33. With SMQASLEAESKGKAE [Compound 44] the “Anti-ulcer activity (mean relative ulcer inhibition rate)” value was 0.16. In the case of SMQASLEALAKGKAE [Compound 34], the “Anti-ulcer activity (mean relative ulcer inhibition rate)” value is reported as 0.91. With SMQASLEAQAKGKAE [Compound 36] the “Anti-ulcer activity (mean relative ulcer inhibition rate)” value was 0.07. In the case of SMQASLESEAKGKAE [Compound 43], the “Anti-ulcer activity (mean relative ulcer inhibition rate)” value is reported as 0.30. With SMQASLLAEAKGKAE [Compound 33] the “Anti-ulcer activity (mean relative ulcer inhibition rate)” value was 0.31. In the case of SMQASLQAEAKGKAE [Compound 35], the “Anti-ulcer activity (mean relative ulcer inhibition rate)” value is reported as 0.57. In the case of SMQASLQAQAKGKAE [Compound 14], the “Anti-ulcer activity (mean relative ulcer inhibition rate)” value is reported as 0.49. For SMQASVEAEAKGKAE [Compound 42], the “Anti-ulcer activity (mean relative ulcer inhibition rate)” value was 0.84. In the case of SMQATLEAEAKGKAE [Compound 41], the “Anti-ulcer activity (mean relative ulcer inhibition rate)” value is reported as 0.92. With STQASLEAEAKGKAE [Compound 48] the “Anti-ulcer activity (mean relative ulcer inhibition rate)” value was 1.19. SVQASLEAEAKGKAE [Compound 12] was tested, and the “Anti-ulcer activity (mean relative ulcer inhibition rate)” value was 0.68. For “Ser-Met (O)-Gln-Ala-Ser-Leu-Glu-Ala-Glu-Ala-Lys-Gly-Lys-Ala-Glu [Compound 11]”, the “Anti-ulcer activity (mean relative ulcer inhibition rate)” value was 1.08. TASTLEAEAKGKAE [Compound 47] was tested, and the “Anti-ulcer activity (mean relative ulcer inhibition rate)” value was 0.61. In the case of TMQASLEAEAKGKAE [Compound 40], the “Anti-ulcer activity (mean relative ulcer inhibition rate)” value is reported as 0.18. Teprenone [reference compound] was tested, and the “Anti-ulcer activity (mean relative ulcer inhibition rate)” value was 0.5.

The substances below were run against FGFR1 (Homo sapiens, UniProt P11362) (assay: FGFR receptor binding assay: ultrafiltration/mass spectrometry affinity screening to FGFR1 protein target). Details: ratio of lower-layer to upper-layer compound MS signal intensity; the greater the ratio, the stronger the affinity.
FGFR1, sequence (P11362 22-822, species assumed): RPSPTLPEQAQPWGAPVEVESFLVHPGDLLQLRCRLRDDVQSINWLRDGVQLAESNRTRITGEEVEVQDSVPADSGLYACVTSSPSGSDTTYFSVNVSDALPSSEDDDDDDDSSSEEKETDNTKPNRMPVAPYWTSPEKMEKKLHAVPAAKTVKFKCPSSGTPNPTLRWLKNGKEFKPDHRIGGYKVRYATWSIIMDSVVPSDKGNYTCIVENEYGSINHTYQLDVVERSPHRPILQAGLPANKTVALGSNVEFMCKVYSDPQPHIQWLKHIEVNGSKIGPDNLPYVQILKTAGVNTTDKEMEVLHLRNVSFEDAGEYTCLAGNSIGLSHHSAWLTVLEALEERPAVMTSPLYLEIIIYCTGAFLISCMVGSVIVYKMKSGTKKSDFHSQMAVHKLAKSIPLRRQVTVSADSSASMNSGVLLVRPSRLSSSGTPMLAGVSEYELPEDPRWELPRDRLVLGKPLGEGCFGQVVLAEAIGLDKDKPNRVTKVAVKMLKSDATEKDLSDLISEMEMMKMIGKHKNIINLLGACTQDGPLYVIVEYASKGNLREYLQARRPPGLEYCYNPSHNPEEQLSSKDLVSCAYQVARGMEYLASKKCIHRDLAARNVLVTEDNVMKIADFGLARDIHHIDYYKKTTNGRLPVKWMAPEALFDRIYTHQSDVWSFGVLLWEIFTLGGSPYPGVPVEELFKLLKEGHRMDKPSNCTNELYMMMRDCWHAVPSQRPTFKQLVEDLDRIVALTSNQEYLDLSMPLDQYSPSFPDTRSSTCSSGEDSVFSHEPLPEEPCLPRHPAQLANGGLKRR
Description: The affinity of the polypeptide compound prepared by the present invention to FGFR1 was tested by using a control FGFR1 allosteric inhibitor (product number SSR128129E from Sigma) as a positive compound control.
Screening for the affinity to FGFR1 was as follows: FGFR1 solutions with an appropriate concentration were taken, the positive compound SSR128129E (Sigma) at an appropriate concentration and sample solutions of the inventive polypeptide compounds, as freeze-dried powders, dissolved in protein buffers were then respectively added. After incubation at room temperature for 50 min, ultrafiltration and screening were carried out to obtain various treated solutions. An appropriate volume of acetonitrile was added to each treated solution to precipitate a protein, the solution was then centrifuged, and the supernatant was taken and analyzed by mass spectrometry.
Affinity screening conditions: One-dimensional liquid-phase conditions were: chromatographic column; PolyLC chromatographic column, mobile phase A: KH2PO4, NaCl, pH 7.5, mobile phase B: acetonitrile, column temperature: 8° C., flow rate: 1 mL/min, and injection volume: appropriate; and two-dimensional liquid-phase conditions were: chromatographic column: BONUS RRHD, mobile phase A: 0.1% formic acid aqueous solution, mobile phase B: 0.1% formic acid in acetonitrile, column temperature: 60° C., flow rate: 0.3 mL/min, and injection volume: 40 uL. Gradient elution was used, i.e., 98% A (0-1 min), 98-10% A (1-6 min), 10% A (6-7.5 min), 10-98% A (7.5-8 min), and 98% A (8-9.5 min). Mass spectrometry conditions: Agilent 6530 Q-Tof, ESI ion source, voltage 3.5 KV, mass-to-charge ratio scanning range m/z=200-3000, acquisition mode: positive ion scanning, ion source temperature: 350° C., solvent removal temperature: 300° C., and nitrogen flow rate: 8 L/min.
For AAVLEKLE [Compound 69], the Cb/Ct range was 1.0-3. In the case of FDALKQQFQAFQLE [Compound 62], the Cb/Ct range is reported as 1.0-3.

Each substance was assayed on HaCaT cells (assay: Proliferation of HaCaT cells (CCK8)). Details: 0.2-0.8 μg/mL; 24 h, 48 h and 72 h; 1% serum.
Type: cell-based, human
Description: Experimental method: Immortalized human keratinocytes (HaCaT cells) was adjusted to a concentration of 1.0×10^5 to 5.0×10^5/mL for passaging, and they were cultured at 37° C. and 5% CO2 for 24-36 h for biological activity detection. The cells were digested with 0.25% trypsin for 5 min, 1640 whole blood culture medium, the volume of which was not less than 1 time of the volume of the trypsin, was added to stop digestion, a cell suspension was collected, centrifuged at 1000 RPM for 3 min, the supernatant was discarded, 2 mL of 1640 whole blood culture medium was added to suspend the cells, 20 μL of the cell suspension was taken and stained with AOPI, the concentration of cells in the suspension was then detected by a cell counter, the suspension was prepared to a concentration of 5×10^4/mL with 1640 culture medium containing serum at a concentration of 10% and inoculated into a 96-well cell culture plate, with 100 μL per well, i.e., 5000 cells/well, and the plate was cultured at 37° C. and 5% CO2 overnight.
After 24 h, the original culture medium was discarded, and 100 μL of polypeptide compound solutions with different concentrations prepared with 1640 culture medium containing serum at a concentration of 1% were added, such that the final concentrations of the polypeptide compounds to be tested were 0.2, 0.4 and 0.8 ug/mL, respectively. In addition, an EGF control group was prepared by adding 100 μL of a recombinant human epidermal growth factor (EGF) solution prepared with 1640 culture medium containing serum at a concentration of 1%, with the final concentration being 100 ng/ml. In the model control group, an equal volume of 1640 culture medium containing serum at a concentration of 1% was added. After culturing at 37° C. and 5% CO2 for 24 h, 48 h and 72 h, the proliferation of the HaCaT cell line was detected by means of CCK8 kit.
AAVLEKLE [Compound 69] was tested, and the “effect on proliferation of HaCaT cells” value was “proliferation-promoting effect”. For SMQASLEAEAKGKAKQD [Compound 53], the “effect on proliferation of HaCaT cells” value was “proliferation-promoting effect”. In the case of SMQASLEAEAKPKAE [Compound 57], the “effect on proliferation of HaCaT cells” value is reported as “proliferation-promoting effect”.
